Experimental data reported in patent US6503899B2, “Azepino[4,5-b]pyrano[3,2-e]indoles” (Pharmacia & Upjohn Company, priority 2000, dated 2003).

## CC1(C)CCc2c(ccc3[nH]c4c(c23)CCNCC4)O1.Cl
  melting point: > 258 °C (dec.)

## Cl.Cn1c2c(c3c4c(ccc31)OCCC4)CCNCC2
  melting point: > 217 °C (dec.)
